Calls of active or inactive are those of the source. The rule behind the calls is not given here.

Assay [1] addresses T1, Metabotropic glutamate receptor 2 (Homo sapiens, UniProt Q14416). Description: Agonist activity at human recombinant mGluR2 receptor assessed as inhibition of forskolin-stimulated [3H]cAMP accumulation incubated for 20 mins by SPA kit analysis. Type of assay: functional. In general terms: cAMP levels reflect the balance of adenylyl cyclase and phosphodiesterase activity.
The target of assay [2] is Metabotropic glutamate receptor 3 (Homo sapiens, UniProt Q14832). Description: Agonist activity at human recombinant mGluR3 receptor assessed as inhibition of forskolin-stimulated [3H]cAMP accumulation incubated for 20 mins by SPA kit analysis. Type of assay: functional.
Assay [3] concerns the target Metabotropic glutamate receptor 1 (Rattus norvegicus, UniProt P23385). Description: Agonist activity at rat mGluR1 receptor expressed in HEK293 cells by IP-1 HTRF assay. The class given is functional, cell-based. A general note: TR-FRET usually uses a lanthanide donor and a delayed reading to cut background.
Assay [4] addresses Metabotropic glutamate receptor 5 (Rattus norvegicus, UniProt P31424). Description: Agonist activity at rat mGluR5 receptor expressed in HEK293 cells by IP-1 HTRF assay. Type of assay: functional, cell-based.
The target of assay [5] is Metabotropic glutamate receptor 2 (Rattus norvegicus, UniProt P31421). The experiment in a line: Agonist activity at rat mGluR2 receptor expressed in HEK293 cells by IP-1 HTRF assay. The class given is functional, cell-based.
Chain of Metabotropic glutamate receptor 2 (Rattus norvegicus, UniProt P31421) (P31421 whole entry): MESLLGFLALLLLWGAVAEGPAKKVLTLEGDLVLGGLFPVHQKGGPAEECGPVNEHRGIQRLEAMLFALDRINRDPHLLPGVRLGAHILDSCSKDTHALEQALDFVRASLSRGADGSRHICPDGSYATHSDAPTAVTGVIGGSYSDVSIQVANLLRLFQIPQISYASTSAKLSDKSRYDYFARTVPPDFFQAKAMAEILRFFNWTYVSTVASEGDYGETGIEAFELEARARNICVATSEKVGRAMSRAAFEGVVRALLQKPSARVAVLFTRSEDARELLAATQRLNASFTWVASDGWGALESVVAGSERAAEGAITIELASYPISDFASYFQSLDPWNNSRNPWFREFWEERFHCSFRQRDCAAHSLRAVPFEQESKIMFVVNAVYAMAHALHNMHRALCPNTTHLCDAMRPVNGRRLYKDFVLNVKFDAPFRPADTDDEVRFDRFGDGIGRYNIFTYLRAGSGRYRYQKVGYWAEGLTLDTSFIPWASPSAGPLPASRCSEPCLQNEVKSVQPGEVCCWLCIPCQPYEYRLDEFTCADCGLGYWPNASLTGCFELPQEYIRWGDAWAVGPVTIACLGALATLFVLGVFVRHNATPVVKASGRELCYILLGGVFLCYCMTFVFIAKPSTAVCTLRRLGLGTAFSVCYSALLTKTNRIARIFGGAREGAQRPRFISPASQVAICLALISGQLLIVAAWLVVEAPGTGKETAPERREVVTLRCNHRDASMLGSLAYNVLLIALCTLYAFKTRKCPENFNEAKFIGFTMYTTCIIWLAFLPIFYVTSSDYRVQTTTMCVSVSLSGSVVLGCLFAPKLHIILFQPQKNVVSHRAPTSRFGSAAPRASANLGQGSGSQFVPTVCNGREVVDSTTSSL
The target of assay [6] is Metabotropic glutamate receptor 3 (Rattus norvegicus, UniProt P31422). Description: Agonist activity at rat mGluR3 receptor expressed in HEK293 cells by IP-1 HTRF assay. Type of assay: functional, cell-based.
For assay [7], the target named is Metabotropic glutamate receptor 4 (Rattus norvegicus) (UniProt P31423). Description: Agonist activity at rat mGluR4 receptor expressed in HEK293 cells at 30 uM by IP-1 HTRF assay. The class given is functional, cell-based.
Assay [8] addresses Metabotropic glutamate receptor 6 (Rattus norvegicus, UniProt P35349). Description: Agonist activity at rat mGluR6 receptor expressed in HEK293 cells by IP-1 HTRF assay. The class given is functional, cell-based.
In assay [9] the target is Metabotropic glutamate receptor 7 (Rattus norvegicus) (UniProt P35400). The experiment in a line: Agonist activity at rat mGluR7 receptor expressed in HEK293 cells at 30 uM by IP-1 HTRF assay. Type of assay: functional, cell-based.
Chain of Metabotropic glutamate receptor 7 (Rattus norvegicus) (P35400 whole entry): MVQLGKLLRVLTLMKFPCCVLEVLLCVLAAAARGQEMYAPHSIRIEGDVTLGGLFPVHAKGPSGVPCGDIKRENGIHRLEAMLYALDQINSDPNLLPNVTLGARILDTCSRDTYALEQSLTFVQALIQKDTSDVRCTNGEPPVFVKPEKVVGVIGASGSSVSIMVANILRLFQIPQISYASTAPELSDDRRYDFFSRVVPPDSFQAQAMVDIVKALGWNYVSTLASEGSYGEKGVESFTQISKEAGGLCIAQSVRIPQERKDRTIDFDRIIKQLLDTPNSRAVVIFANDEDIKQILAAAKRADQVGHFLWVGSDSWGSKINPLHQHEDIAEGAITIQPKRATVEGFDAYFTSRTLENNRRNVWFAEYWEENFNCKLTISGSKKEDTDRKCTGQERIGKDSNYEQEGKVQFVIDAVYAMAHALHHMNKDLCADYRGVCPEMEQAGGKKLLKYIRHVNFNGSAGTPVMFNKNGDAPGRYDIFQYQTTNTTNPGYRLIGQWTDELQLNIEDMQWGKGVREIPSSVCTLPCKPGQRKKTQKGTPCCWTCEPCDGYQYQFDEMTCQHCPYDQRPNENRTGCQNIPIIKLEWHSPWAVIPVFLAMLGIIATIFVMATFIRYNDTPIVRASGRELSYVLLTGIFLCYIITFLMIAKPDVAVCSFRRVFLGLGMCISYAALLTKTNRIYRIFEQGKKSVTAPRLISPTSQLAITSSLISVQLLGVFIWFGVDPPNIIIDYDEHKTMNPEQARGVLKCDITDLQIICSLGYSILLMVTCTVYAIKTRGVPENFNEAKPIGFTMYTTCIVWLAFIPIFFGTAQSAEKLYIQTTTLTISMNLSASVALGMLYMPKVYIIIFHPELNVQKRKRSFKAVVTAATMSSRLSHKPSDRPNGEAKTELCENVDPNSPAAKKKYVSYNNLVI
In assay [10] the target is Metabotropic glutamate receptor 8 (Rattus norvegicus) (UniProt P70579). Description: Agonist activity at rat mGluR8 receptor expressed in HEK293 cells at 30 uM by IP-1 HTRF assay. The class given is functional, cell-based.
For assay [11], the target named is Metabotropic glutamate receptor 1 (Rattus norvegicus) (UniProt P23385). Description: Antagonist activity at rat mGluR1 receptor expressed in HEK293 cells by IP-1 HTRF assay. The class given is functional, cell-based.
In assay [12] the target is Metabotropic glutamate receptor 5 (Rattus norvegicus) (UniProt P31424). The experiment in a line: Antagonist activity at rat mGluR5 receptor expressed in HEK293 cells by IP-1 HTRF assay. Type of assay: functional, cell-based.
For assay [13], the target named is Metabotropic glutamate receptor 2 (Rattus norvegicus) (UniProt P31421). The experiment in a line: Antagonist activity at rat mGluR2 receptor expressed in HEK293 cells by IP-1 HTRF assay. The class given is functional, cell-based.
Chain of Metabotropic glutamate receptor 2 (Rattus norvegicus) (P31421 19-872 limits assumed): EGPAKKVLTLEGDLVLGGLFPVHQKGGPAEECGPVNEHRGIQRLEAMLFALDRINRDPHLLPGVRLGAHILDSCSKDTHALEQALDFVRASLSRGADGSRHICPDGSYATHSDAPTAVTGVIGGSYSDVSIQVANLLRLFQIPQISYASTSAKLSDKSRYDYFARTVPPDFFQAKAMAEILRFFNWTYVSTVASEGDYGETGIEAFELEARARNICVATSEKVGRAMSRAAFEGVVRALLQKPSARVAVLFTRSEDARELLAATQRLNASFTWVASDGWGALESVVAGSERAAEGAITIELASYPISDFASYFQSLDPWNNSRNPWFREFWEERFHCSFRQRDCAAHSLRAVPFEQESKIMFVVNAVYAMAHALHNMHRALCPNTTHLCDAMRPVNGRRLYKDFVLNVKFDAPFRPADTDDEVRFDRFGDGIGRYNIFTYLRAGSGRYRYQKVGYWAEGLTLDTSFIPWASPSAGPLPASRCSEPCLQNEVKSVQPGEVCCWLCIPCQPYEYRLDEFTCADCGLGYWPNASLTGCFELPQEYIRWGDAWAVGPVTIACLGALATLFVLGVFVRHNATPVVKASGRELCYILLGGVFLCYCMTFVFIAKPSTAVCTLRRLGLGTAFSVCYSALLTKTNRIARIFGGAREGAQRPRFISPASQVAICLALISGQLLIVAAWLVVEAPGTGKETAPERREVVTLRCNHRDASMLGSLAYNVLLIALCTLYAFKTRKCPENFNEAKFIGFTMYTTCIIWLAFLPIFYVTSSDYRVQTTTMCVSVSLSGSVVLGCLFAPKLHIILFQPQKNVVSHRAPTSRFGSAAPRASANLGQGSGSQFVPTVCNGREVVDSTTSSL
The target of assay [14] is Metabotropic glutamate receptor 3 (Rattus norvegicus) (UniProt P31422). Description: Antagonist activity at rat mGluR3 receptor expressed in HEK293 cells by IP-1 HTRF assay. The class given is functional, cell-based.
Chain of Metabotropic glutamate receptor 3 (Rattus norvegicus) (P31422 23-879 limits assumed): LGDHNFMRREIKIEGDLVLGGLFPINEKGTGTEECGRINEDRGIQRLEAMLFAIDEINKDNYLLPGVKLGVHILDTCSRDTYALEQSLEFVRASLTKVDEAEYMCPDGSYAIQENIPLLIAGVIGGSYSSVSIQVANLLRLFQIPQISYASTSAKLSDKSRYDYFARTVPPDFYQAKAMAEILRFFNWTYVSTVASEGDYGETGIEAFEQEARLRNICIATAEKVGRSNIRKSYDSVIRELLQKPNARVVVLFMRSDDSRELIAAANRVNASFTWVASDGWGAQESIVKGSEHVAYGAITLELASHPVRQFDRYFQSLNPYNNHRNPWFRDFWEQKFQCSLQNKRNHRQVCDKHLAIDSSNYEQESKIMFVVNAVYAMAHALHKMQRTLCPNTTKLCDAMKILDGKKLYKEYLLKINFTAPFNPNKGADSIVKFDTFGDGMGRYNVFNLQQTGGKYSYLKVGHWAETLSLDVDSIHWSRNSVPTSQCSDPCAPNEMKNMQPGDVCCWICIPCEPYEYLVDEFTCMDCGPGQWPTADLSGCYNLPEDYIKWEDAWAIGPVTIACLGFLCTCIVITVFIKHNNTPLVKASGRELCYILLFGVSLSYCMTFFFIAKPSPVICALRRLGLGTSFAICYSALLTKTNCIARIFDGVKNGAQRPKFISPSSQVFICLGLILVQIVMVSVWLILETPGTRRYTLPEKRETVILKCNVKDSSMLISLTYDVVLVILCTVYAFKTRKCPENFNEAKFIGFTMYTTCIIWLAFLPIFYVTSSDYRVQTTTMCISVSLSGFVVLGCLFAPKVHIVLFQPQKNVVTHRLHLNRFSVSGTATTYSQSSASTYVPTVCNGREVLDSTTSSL
The target of assay [15] is Metabotropic glutamate receptor 4 (Rattus norvegicus) (UniProt P31423). Description: Antagonist activity at rat mGluR4 receptor expressed in HEK293 cells by IP-1 HTRF assay. The class given is functional, cell-based.
The target in assay [16] is Metabotropic glutamate receptor 6 (Rattus norvegicus) (UniProt P35349). The experiment in a line: Antagonist activity at rat mGluR6 receptor expressed in HEK293 cells by IP-1 HTRF assay. Type of assay: functional, cell-based.
The target of assay [17] is Metabotropic glutamate receptor 7 (Rattus norvegicus) (UniProt P35400). The experiment in a line: Antagonist activity at rat mGluR7 receptor expressed in HEK293 cells by IP-1 HTRF assay. Type of assay: functional, cell-based.
The target of assay [18] is Metabotropic glutamate receptor 8 (Rattus norvegicus) (UniProt P70579). Description: Antagonist activity at rat mGluR8 receptor expressed in HEK293 cells by IP-1 HTRF assay. The class given is functional, cell-based.
The species entered for assay [19] is Rattus norvegicus. Description: Selectivity ratio of EC50 for agonist activity at rat mGluR3 receptor expressed in HEK293 cells to EC50 for agonist activity at rat mGluR2 receptor expressed in HEK293 cells. The class given is cell-based.
The species named for assay [20] is Rattus norvegicus. The experiment in a line: Selectivity ratio of EC50 for agonist activity at rat mGluR1 receptor expressed in HEK293 cells to EC50 for agonist activity at rat mGluR2 receptor expressed in HEK293 cells. Type of assay: cell-based.
The species entered for assay [21] is Rattus norvegicus. The experiment in a line: Selectivity ratio of EC50 for agonist activity at rat mGluR5 receptor expressed in HEK293 cells to EC50 for agonist activity at rat mGluR2 receptor expressed in HEK293 cells. The class given is cell-based.
For assay [22], the species on record is Rattus norvegicus. Description: Selectivity ratio of EC50 for agonist activity at rat mGluR4 receptor expressed in HEK293 cells to EC50 for agonist activity at rat mGluR2 receptor expressed in HEK293 cells. Type of assay: cell-based.
For assay [23], the species on record is Rattus norvegicus. The experiment in a line: Selectivity ratio of EC50 for agonist activity at rat mGluR6 receptor expressed in HEK293 cells to EC50 for agonist activity at rat mGluR2 receptor expressed in HEK293 cells. Type of assay: cell-based.
The species entered for assay [24] is Rattus norvegicus. The experiment in a line: Selectivity ratio of EC50 for agonist activity at rat mGluR7 receptor expressed in HEK293 cells to EC50 for agonist activity at rat mGluR2 receptor expressed in HEK293 cells. The class given is cell-based.
The species entered for assay [25] is Rattus norvegicus. Description: Selectivity ratio of EC50 for agonist activity at rat mGluR8 receptor expressed in HEK293 cells to EC50 for agonist activity at rat mGluR2 receptor expressed in HEK293 cells. The class given is cell-based.
The target in assay [26] is Metabotropic glutamate receptor 4 (Rattus norvegicus, UniProt P31423). The experiment in a line: Agonist activity at rat mGluR4 receptor expressed in HEK293 cells by IP-1 HTRF assay. Type of assay: functional, cell-based.
In assay [27] the target is Metabotropic glutamate receptor 7 (Rattus norvegicus, UniProt P35400). Description: Agonist activity at rat mGluR7 receptor expressed in HEK293 cells by IP-1 HTRF assay. The class given is functional, cell-based.
Chain of Metabotropic glutamate receptor 7 (P35400 whole entry): as the sequence (P35400 whole entry) above
For assay [28], the target named is Metabotropic glutamate receptor 8 (Rattus norvegicus, UniProt P70579). Description: Agonist activity at rat mGluR8 receptor expressed in HEK293 cells by IP-1 HTRF assay. The class given is functional, cell-based.
For assay [29], the target named is Metabotropic glutamate receptor 1 (Rattus norvegicus) (UniProt P23385). Description: Agonist activity at rat mGluR1 receptor expressed in HEK293 cells at 100 uM by IP-1 HTRF assay. The class given is functional, cell-based.
The target of assay [30] is Metabotropic glutamate receptor 5 (Rattus norvegicus) (UniProt P31424). The experiment in a line: Agonist activity at rat mGluR5 receptor expressed in HEK293 cells at 100 uM by IP-1 HTRF assay. Type of assay: functional, cell-based.
Assay [31] deals with Metabotropic glutamate receptor 2 (Rattus norvegicus) (UniProt P31421). The experiment in a line: Agonist activity at rat mGluR2 receptor expressed in HEK293 cells at 100 uM by IP-1 HTRF assay. Type of assay: functional, cell-based.
The target in assay [32] is Metabotropic glutamate receptor 3 (Rattus norvegicus) (UniProt P31422). The experiment in a line: Agonist activity at rat mGluR3 receptor expressed in HEK293 cells at 100 uM by IP-1 HTRF assay. The class given is functional, cell-based.
In assay [33] the target is Metabotropic glutamate receptor 4 (Rattus norvegicus) (UniProt P31423). Description: Agonist activity at rat mGluR4 receptor expressed in HEK293 cells at 100 uM by IP-1 HTRF assay. Type of assay: functional, cell-based.
Assay [34] concerns the target Metabotropic glutamate receptor 6 (Rattus norvegicus) (UniProt P35349). Description: Agonist activity at rat mGluR6 receptor expressed in HEK293 cells at 100 uM by IP-1 HTRF assay. The class given is functional, cell-based.
Assay [35] has as its target Metabotropic glutamate receptor 7 (Rattus norvegicus) (UniProt P35400). Description: Agonist activity at rat mGluR7 receptor expressed in HEK293 cells at 100 uM by IP-1 HTRF assay. The class given is functional, cell-based.
Assay [36] addresses Metabotropic glutamate receptor 8 (Rattus norvegicus) (UniProt P70579). Description: Agonist activity at rat mGluR8 receptor expressed in HEK293 cells at 100 uM by IP-1 HTRF assay. Type of assay: functional, cell-based.
For assay [37], the target named is T1, Metabotropic glutamate receptor 2. The experiment in a line: Agonist activity at mGluR2 receptor (unknown origin). Type of assay: functional.
Assay [38] deals with Metabotropic glutamate receptor 3 (Rattus norvegicus) (UniProt P31422). The experiment in a line: Agonist activity at rat mGluR3 receptor expressed in HEK293 cells at 3 uM by IP-1 HTRF assay. The class given is functional, cell-based. Particulars: filed as agonist.

Chain of Metabotropic glutamate receptor 1 (P23385 whole entry): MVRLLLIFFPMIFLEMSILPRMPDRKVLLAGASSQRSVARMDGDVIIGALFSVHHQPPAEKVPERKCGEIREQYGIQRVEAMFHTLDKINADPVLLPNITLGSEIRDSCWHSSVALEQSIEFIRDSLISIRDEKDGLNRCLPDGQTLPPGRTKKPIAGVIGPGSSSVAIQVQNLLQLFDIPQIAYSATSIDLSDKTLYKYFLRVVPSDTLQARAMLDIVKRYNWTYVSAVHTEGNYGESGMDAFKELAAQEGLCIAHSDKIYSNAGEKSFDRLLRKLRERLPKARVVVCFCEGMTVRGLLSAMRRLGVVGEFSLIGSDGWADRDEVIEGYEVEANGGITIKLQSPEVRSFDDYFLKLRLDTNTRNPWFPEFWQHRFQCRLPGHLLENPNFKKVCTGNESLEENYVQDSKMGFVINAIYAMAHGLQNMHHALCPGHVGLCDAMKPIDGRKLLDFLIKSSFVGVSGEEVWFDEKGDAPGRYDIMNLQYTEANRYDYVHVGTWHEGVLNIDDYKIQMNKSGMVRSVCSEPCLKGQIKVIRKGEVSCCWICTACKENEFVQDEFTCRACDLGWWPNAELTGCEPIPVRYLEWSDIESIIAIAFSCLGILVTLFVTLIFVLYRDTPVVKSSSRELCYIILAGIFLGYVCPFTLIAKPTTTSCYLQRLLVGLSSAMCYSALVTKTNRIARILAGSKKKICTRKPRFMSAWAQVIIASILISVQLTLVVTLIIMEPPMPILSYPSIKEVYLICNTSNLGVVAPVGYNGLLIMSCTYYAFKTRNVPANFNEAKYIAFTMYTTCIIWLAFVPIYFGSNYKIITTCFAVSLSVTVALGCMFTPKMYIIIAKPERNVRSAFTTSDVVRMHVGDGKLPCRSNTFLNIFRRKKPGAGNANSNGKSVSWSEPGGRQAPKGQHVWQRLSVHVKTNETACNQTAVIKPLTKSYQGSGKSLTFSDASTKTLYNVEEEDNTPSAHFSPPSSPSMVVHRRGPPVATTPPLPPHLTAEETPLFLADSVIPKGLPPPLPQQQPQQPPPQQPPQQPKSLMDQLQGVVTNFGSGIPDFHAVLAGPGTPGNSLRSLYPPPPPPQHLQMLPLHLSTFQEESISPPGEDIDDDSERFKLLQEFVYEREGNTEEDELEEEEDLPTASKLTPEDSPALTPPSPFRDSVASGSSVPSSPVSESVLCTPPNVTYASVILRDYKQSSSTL

For `C[C@H]1[C@H](C(=O)O)[C@H]1[C@H](N)C(=O)O`, the results for the EC50 in assay [1] and in assay [2] were 0.008 µM and 0.038 µM, respectively.
Regarding `C[C@@]1(C(=O)O)C[C@H]1[C@H](N)C(=O)O`, the EC50 in assay [3] (read-out: EC50) is 5.21 µM; in [3] (read-out: pEC50 (converted)), 5.13 µM; in assay [4] (read-out: EC50), 10.6 µM; in [4] (read-out: pEC50 (converted)), 11.2 µM; in assay [5] (read-out: EC50) it was 0.082 µM; in assay [6], 1.22 µM. In addition, the EC50 in assay [8] (read-out: EC50) is 2.18 µM; in assay [8] (read-out: pEC50 (converted)), 2.14 µM. The result in assay [7], in [9] and in [10] was inactive. Moreover, the inhibition result in [11], in assay [12], in [13], in assay [14], in assay [15] and in assay [16] was “inactive” each time. The inhibition entry in [17] and in assay [18] was “inactive” in each case. Moreover, the Ratio EC50 in the assay filed under Rattus norvegicus [19] was 15; in the assay listed under Rattus norvegicus [20] it was greater than 60; in the assay listed under Rattus norvegicus [21], greater than 60; in the assay listed under Rattus norvegicus [22], greater than 25; in the assay filed under Rattus norvegicus [23], greater than 25; in the assay listed under Rattus norvegicus [24], greater than 25. For the same compound, the Ratio EC50 in the assay filed under Rattus norvegicus [25] is greater than 25.
Take `N[C@H](C(=O)O)[C@H]1C[C@@H]1C(=O)O`: the EC50 is 0.3 µM in assay [1] and 0.6 µM in assay [2].
Take `CC[C@@]1(C(=O)O)C[C@H]1[C@H](N)C(=O)O`: the EC50 in [3] (read-out: EC50) was greater than 30 µM; in assay [4] (read-out: EC50), greater than 30 µM; in assay [5] (read-out: EC50) it was 1.8 µM; in assay [5] (read-out: pEC50 (converted)), 1.82 µM; in assay [6] it was greater than 30 µM; in assay [26], greater than 30 µM. Further, the figures for the EC50 in assay [8] (read-out: EC50), in assay [27] and in [28] were 26.3 µM, greater than 30 µM and greater than 30 µM, respectively. In addition, the inhibition entry in [11], in assay [12], in [13], in assay [14], in assay [15] and in assay [16] was “inactive” each time. Also, the inhibition result in [17] and in [18] was “inactive” each time.
As for `N[C@@H](C[C@H]1C[C@@H]1C(=O)O)C(=O)O`, the outcome in [29], in [30], in assay [31], in assay [32], in assay [33] and in assay [34] was inactive. The result in assay [35] and in assay [36] was inactive. Further, the inhibition entry in [11], in [12], in [13], in assay [14], in [15] and in [16] was “inactive” each time. Moreover, the inhibition result in [17] and in assay [18] was “inactive” in each case.
With `N[C@H](C(=O)O)[C@@H]1C[C@H]1C(=O)O`, the EC50 in [37] turned out to be 0.3 µM.
With `N[C@@]1(C(=O)O)CO[C@H]2[C@H](C(=O)O)[C@H]21` [LY-379268], the EC50 amounted to 0.0006 µM in [5] (read-out: EC50) and 0.009 µM in assay [6]. This compound yielded an Activity in [38] of 100%.
Turning to `C[C@@]1(C(=O)O)C[C@@H]1C[C@H](N)C(=O)O` (mixture of isomers), the outcome in assay [29], in assay [30], in assay [32], in assay [33], in assay [34] and in [35] was inactive. In addition, the result in assay [36] was inactive. Further, the EC50 in [5] (read-out: EC50) is 10 µM; in assay [5] (read-out: pEC50 (converted)), 15.8 µM. The inhibition result in assay [11], in assay [12], in assay [13], in assay [14], in assay [15] and in assay [16] was “inactive” each time. For the same compound, the inhibition result in assay [17] and in assay [18] was “inactive” each time.
`N[C@@H](CCP(=O)(O)O)C(=O)O`: the EC50 in assay [26] is roughly 30 µM; in assay [8] (read-out: EC50), 2.5 µM; in assay [27], roughly 30 µM; in [28], roughly 30 µM.

(Values after ChEMBL document CHEMBL5505966, “Synthesis and pharmacological characterization of conformationally restricted 2-amino-Adipic acid analogs and carboxycyclopropyl glycines as selective metabotropic glutamate 2 receptor agonists” (Eur J Med Chem, 2024).)
